From US20230374038A1, “MODULATORS OF CYSTIC FIBROSIS TRANSMEMBRANE CONDUCTANCE REGULATOR” (VERTEX PHARMACEUTICALS INCORPORATED, priority 2020, published 2023) come the findings set out here.

Holding throughout (format): cell-based
The target of test [1] is T1, CFTR (Homo sapiens, UniProt P13569, DEL508-508).
T1 construct: endogenous in cells; host or cells: primary human bronchial epithelial cells, F508del/MF genotype
Kind of test: HBE2 Assay: Ussing chamber assay of CFTR-mediated short-circuit currents in F508del/MF-HBE cells with 44 nM (6R,12R)-17-amino-12-methyl-6,15-bis(trifluoromethyl)-13,19-dioxa-3,4,18-triazatricyclo[12.3.1.12,5]nonadeca-1(18),2,4,14,16-pentaen-6-ol. Conditions: 3 μM with 44 nM (6R,12R)-17-amino-12-methyl-6,15-bis(trifluoromethyl)-13,19-dioxa-3,4,18-triazatricyclo[12.3.1.12,5]nonadeca-1(18),2,4,14,16-pentaen-6-ol, 18-24 hours, 20% human serum. The procedure: Ussing chamber experiments were performed using human bronchial epithelial (HBE) cells derived from CF subjects heterozygous for F508del and a minimal function CFTR mutation (F508del/MF-HBE) and cultured as previously described (Neuberger T, Burton B, Clark H, Van Goor F Methods Mol Biol 2011:741:39-54). After four days the apical media was removed, and the cells were grown at an air liquid interface for >14 days prior to use.
To isolate the CFTR-mediated short-circuit (ISC) current, F508del/MF-HBE grown on Costar® Snapwell™ cell culture inserts were mounted in an Ussing chamber and the transepithelial ISC was measured under voltage-clamp recording conditions (Vhold=0 mV) at 37° C. The basolateral solution contained (in mM) 145 NaCl, 0.83 K2HPO4, 3.3 KH2PO4, 1.2 MgCl2, 1.2 CaCl2), 10 Glucose, 10 HEPES (pH adjusted to 7.4 with NaOH) and the apical solution contained (in mM) 145 NaGluconate, 1.2 MgCl2, 1.2 CaCl2), 10 glucose, 10 HEPES (pH adjusted to 7.4 with NaOH) and 30 μM amiloride to block the epithelial sodium channel. Forskolin (20 μM) was added to the apical surface to activate CFTR, followed by apical addition of a CFTR inhibitor cocktail consisting of BPO, GlyH-101, and CFTR inhibitor 172 (each at 20 μM final assay concentration) to specifically isolate CFTR currents. The CFTR-mediated ISC (μA/cm^2) for each condition was determined from the peak forskolin response to the steady-state current following inhibition.
The activity of the CFTR corrector compounds on the CFTR-mediated ISC was determined in Ussing chamber studies as described above. The F508del/MF-HBE cell cultures were either incubated with the corrector compounds at a range of concentrations in combination with 44 nM (6R,12R)-17-amino-12-methyl-6,15-bis(trifluoromethyl)-13,19-dioxa-3,4,18-triazatricyclo[12.3.1.12,5]nonadeca-1(18),2,4,14,16-pentaen-6-ol or were incubated with the corrector compounds at a single fixed concentration of 1 and 3 μM in combination with 44 nM (6R,12R)-17-amino-12-methyl-6,15-bis(trifluoromethyl)-13,19-dioxa-3,4,18-triazatricyclo[12.3.1.12,5]nonadeca-1(18),2,4,14,16-pentaen-6-ol for 18-24 hours at 37° C. and in the presence of 20% human serum. The concentration of corrector compounds with 44 nM (6R,12R)-17-amino-12-methyl-6,15-bis(trifluoromethyl)-13,19-dioxa-3,4,18-triazatricyclo[12.3.1.12,5]nonadeca-1(18),2,4,14,16-pentaen-6-ol during the 18-24 hours incubations was kept constant throughout the Ussing chamber measurement of the CFTR-mediated ISC to ensure compounds were present throughout the entire experiment.

Test [2] deals with T2, F508del (Homo sapiens, UniProt P13569, DEL508-508).
T2 construct: expressed in transfected cells; host or cells: NIH3T3 mouse fibroblasts
T2 sequence (P13569 with tags, fused parts or gaps DEL508-508): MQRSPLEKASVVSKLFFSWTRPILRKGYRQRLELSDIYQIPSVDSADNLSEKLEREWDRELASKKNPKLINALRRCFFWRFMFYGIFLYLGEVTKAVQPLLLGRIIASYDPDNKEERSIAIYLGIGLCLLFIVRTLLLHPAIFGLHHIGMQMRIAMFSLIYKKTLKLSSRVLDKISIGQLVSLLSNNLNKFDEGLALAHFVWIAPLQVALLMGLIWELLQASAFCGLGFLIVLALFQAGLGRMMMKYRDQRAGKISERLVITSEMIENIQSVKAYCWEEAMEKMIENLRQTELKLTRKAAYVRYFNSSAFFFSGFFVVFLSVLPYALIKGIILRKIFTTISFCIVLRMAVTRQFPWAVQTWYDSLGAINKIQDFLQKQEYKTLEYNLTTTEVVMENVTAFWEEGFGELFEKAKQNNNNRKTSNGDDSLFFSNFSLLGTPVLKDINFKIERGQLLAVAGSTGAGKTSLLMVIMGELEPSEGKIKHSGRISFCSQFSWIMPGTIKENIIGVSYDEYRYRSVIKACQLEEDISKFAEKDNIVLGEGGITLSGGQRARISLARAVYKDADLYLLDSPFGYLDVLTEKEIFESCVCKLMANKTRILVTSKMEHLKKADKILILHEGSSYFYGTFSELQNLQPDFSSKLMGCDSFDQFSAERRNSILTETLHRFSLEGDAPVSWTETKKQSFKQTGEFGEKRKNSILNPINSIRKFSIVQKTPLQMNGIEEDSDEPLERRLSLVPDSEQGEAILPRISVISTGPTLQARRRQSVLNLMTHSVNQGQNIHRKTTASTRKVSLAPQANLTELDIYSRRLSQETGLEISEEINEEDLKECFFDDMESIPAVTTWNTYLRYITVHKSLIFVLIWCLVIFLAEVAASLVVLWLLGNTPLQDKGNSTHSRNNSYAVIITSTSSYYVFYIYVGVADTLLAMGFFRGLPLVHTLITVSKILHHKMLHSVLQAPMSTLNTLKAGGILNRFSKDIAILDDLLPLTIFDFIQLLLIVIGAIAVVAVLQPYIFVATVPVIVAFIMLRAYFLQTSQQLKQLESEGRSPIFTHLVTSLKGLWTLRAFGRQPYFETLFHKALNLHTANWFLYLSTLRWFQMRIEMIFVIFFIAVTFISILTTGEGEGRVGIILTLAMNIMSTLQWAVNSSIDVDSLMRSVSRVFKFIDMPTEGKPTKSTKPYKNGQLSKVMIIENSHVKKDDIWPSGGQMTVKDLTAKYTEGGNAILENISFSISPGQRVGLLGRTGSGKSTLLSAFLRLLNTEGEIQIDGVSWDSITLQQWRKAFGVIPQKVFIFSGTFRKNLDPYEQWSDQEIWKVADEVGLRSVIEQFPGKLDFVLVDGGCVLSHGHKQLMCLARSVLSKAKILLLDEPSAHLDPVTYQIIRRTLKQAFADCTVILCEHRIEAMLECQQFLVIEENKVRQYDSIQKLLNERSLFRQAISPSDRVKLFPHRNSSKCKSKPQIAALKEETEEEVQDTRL
Kind of test: 3T3 Assay: membrane potential optical assay for F508del correctors in NIH 3T3 cells. Conditions: for EC50: F508del corrector assay; for Emax: NIH3T3, F508del corrector assay, read-out: 3T3 Max Activity. From the text: The assay utilizes fluorescent voltage sensing dyes to measure changes in membrane potential using a fluorescent plate reader (e.g., FLIPR III, Molecular Devices, Inc.) as a readout for increase in functional F508del in NIH 3T3 cells. The driving force for the response is the creation of a chloride ion gradient in conjunction with channel activation by a single liquid addition step after the cells have previously been treated with compounds and subsequently loaded with a voltage sensing dye.
To identify correctors of F508del, a single-addition HTS assay format was developed. This HTS assay utilizes fluorescent voltage sensing dyes to measure changes in membrane potential on the FLIPR III as a measurement for increase in gating (conductance) of F508del in F508del NIH 3T3 cells. The F508del NIH 3T3 cell cultures were incubated with the corrector compounds at a range of concentrations for 18-24 hours at 37° C., and subsequently loaded with a redistribution dye. The driving force for the response is a Cl^− ion gradient in conjunction with channel activation with forskolin in a single liquid addition step using a fluorescent plate reader such as FLIPR III.
Bath Solution #1: (in mM) NaCl 160, KCl 4.5, CaCl2) 2, MgCl2 1, HEPES 10, pH 7.4 with NaOH.
Chloride-free bath solution: Chloride salts in Bath Solution #1 (above) are substituted with gluconate salts.
NIH3T3 mouse fibroblasts stably expressing F508del are used for optical measurements of membrane potential. The cells are maintained at 37° C. in 5% CO2 and 90% humidity in Dulbecco's modified Eagle's medium supplemented with 2 mM glutamine, 10% fetal bovine serum, 1×NEAA, b-ME, 1× pen/strep, and 25 mM HEPES in 175 cm^2 culture flasks. For all optical assays, the cells were seeded at ˜20,000/well in 384-well matrigel-coated plates. For the correction assays, the cells are cultured at 37° C. with and without compounds for 16-24 hours.

Test [3] has as its target CFTR (Homo sapiens, UniProt P13569). Kind of test: Membrane Potential Dye, Enteroid Assay A. Conditions: for EC50: read-out: Ent. A EC50.

T1 sequence (P13569 with tags, fused parts or gaps DEL508-508): as above
Sequence of CFTR (Homo sapiens, UniProt P13569) (P13569 with tags, fused parts or gaps DEL508-508): as above

Turning to `Cc1cccc(OC(C)C)c1-c1nc2nc(c1C)OC[C@@H](CC(C)(C)C)N(Cc1ncc(N3CCC(C)(C)C3)cn1)C(=O)c1cccc(c1)S(=O)(=O)N2` (atropisomer, axis not shown) [Compound 356], the “HBE2 Activity at 3 μM (%)” value in test [1] was “+++ (+++ is >60%)”.

Regarding `Cc1cccc(CC(C)C)c1-c1nc2nc(c1C)OC[C@@H](CC(C)(C)C)N(Cc1cncc(N(C)C3CCC3)n1)C(=O)c1cccc(c1)S(=O)(=O)N2` (atropisomer, axis not shown) [Compound 357], in test [1], the “HBE2 Activity at 3 μM (%)” value was “+++ (+++ is >60%)”.

`Cc1cccc(CCC(C)C)c1-c1nc2nc(c1C)OC[C@@H](CC(C)(C)C)N(Cc1ncc(OC(C)C)cn1)C(=O)c1cccc(c1)S(=O)(=O)N2` (atropisomer, axis not shown; (M)) [Compound 333, (5M,11R)-11-(2,2-Dimethylpropyl)-7-methyl-6-[2-methyl-6-(3-methylbutyl)phenyl]-12-{[5-(propan-2-yloxy)pyrimidin-2-yl]methyl}-9-oxa-2λ^6-thia-3,5,12,19-tetraazatricyclo[12.3.1.14,8]nonadeca-1(17),4(19),5,7,14(18),15-hexaene-2,2,13-trione]: in test [1], the “HBE2 Activity at 3 μM (%)” value is “+++ (+++ is >60%)”.

As to `Cc1cccc(CCC(C)C)c1-c1nc2nc(c1C)OC[C@@H](CC(C)(C)C)N(Cc1ncc(OC(C)C)cn1)C(=O)c1cccc(c1)S(=O)(=O)N2` (atropisomer, axis not shown; (P)) [Compound 334, (5P,11R)-11-(2,2-Dimethylpropyl)-7-methyl-6-[2-methyl-6-(3-methylbutyl)phenyl]-12-{[5-(propan-2-yloxy)pyrimidin-2-yl]methyl}-9-oxa-2λ^6-thia-3,5,12,19-tetraazatricyclo[12.3.1.14,8]nonadeca-1(17),4(19),5,7,14(18),15-hexaene-2,2,13-trione], the “HBE2 Activity at 3 μM (%)” value in test [1] is on record as “+++ (+++ is >60%)”.

As to `CCc1c2nc(nc1-c1ccccc1CC(C)C)NS(=O)(=O)c1cccc(c1)NC(=O)c1cccc(c1)O2` [Compound 3, 4-Ethyl-5-(2-isobutylphenyl)-9,9-dioxo-2-oxa-9λ^6-thia-6,8,15,23-tetrazatetracyclo[15.3.1.13,7.110,14]tricosa-1(21),3,5,7(23),10,12,14(22),17,19-nonaen-16-one], in test [2], the concentration for a half-maximal effect (EC50) – broadly, the midpoint of the concentration-response curve – is below 1000 nM and the Emax is above 60%. In addition, in test [3], the “Ent. A Max Activity” value is “+++ (+++ is >60%)” and the EC50 was below 1000 nM.

On to `CCc1c2nc(nc1-c1c(C)cccc1C)NS(=O)(=O)c1cccc(c1)NC(=O)c1cccc(c1)O2` [Compound 4, 5-(2,6-Dimethylphenyl)-4-ethyl-9,9-dioxo-2-oxa-9λ^6-thia-6,8,15,23-tetrazatetracyclo[15.3.1.13,7.110,14]tricosa-1(21),3,5,7(23),10,12,14(22),17,19-nonaen-16-one], for which, in test [2], the half-maximal effective concentration (EC50) was below 1000 nM and the Emax was above 60%. Further, in test [3], the “Ent. A Max Activity” value was “+++ (+++ is >60%)” and the EC50 is 1000 to 3000 nM.

Turning to `CCc1c2nc(nc1-c1ccccc1C(C)C)NS(=O)(=O)c1cccc(c1)NC(=O)c1cc(ccc1Cl)O2` [Compound 5, 18-Chloro-4-ethyl-5-[2-(propan-2-yl)phenyl]-2-oxa-9λ^6-thia-6,8,15,23-tetraazatetracyclo[15.3.1.13,7.110,14]tricosa-1(20),3(23),4,6,10(22),11,13,17(21),18-nonaene-9,9,16-trione], in test [2], the EC50 is below 1000 nM and the Emax is above 60%. In addition, in test [3], the “Ent. A Max Activity” value is on record as “+++ (+++ is >60%)” and the concentration giving a half-maximal response (EC50) was below 1000 nM.

Consider `CCc1c2nc(nc1-c1ccccc1C(C)C)NS(=O)(=O)c1cccc(c1)NC(=O)c1cccc(c1C)O2` [Compound 15], for which, in test [2], the EC50 is below 1000 nM and the Emax is above 60%. For the same compound, in test [3], the “Ent. A Max Activity” value is “+++ (+++ is >60%)” and the EC50 was below 1000 nM.

As for `CCc1c2nc(nc1-c1ccccc1C(C)C)NS(=O)(=O)c1cccc(c1)NC(=O)c1cccc(c1)O2` [Compound 16], in test [2], the 50% effective concentration (EC50) was below 1000 nM and the Emax is above 60%. Further, in test [3], the “Ent. A Max Activity” value is listed as “+++ (+++ is >60%)” and the EC50 was below 1000 nM.

With `CCc1c2nc(nc1-c1ccccc1OCC(C)C)NS(=O)(=O)c1cccc(c1)NC(=O)c1cccc(c1)O2` [Compound 26], in test [2], the EC50 was below 1000 nM and the Emax was above 60%. Moreover, in test [3], the “Ent. A Max Activity” value was “+ (+ is <30%)” and the EC50 lay in the range of 1000 to 3000 nM.

With `CCc1c2nc(nc1-c1ccccc1OC(C)C)NS(=O)(=O)c1cccc(c1)NC(=O)c1cccc(c1)O2` [Compound 29], in test [2], the EC50 was below 1000 nM and the Emax was above 60%. Further, the “Ent. A Max Activity” value in test [3] is on record as “+ (+ is <30%)”.

`Cc1cccc(C)c1-c1nc2nc(c1C)OC[C@@H](CC(C)C)N(Cc1cncc(N(C)C3CCC3)n1)C(=O)c1cccc(c1)S(=O)(=O)N2` [Compound 358]: the “HBE2 Activity at 3 μM (%)” value in test [1] is “+++ (+++ is >60%)”.

Consider `Cc1cccc(C)c1-c1nc2nc(c1C)OC[C@@H](CC(C)(C)C)N(Cc1cncc(N(C)C3CCC3)n1)C(=O)c1cccc(c1)S(=O)(=O)N2` [Compound 359], for which, in test [1], the “HBE2 Activity at 3 μM (%)” value is listed as “+++ (+++ is >60%)”.

In the case of `Cc1cccc(CC2CCCCC2)c1-c1nc2nc(c1C)OC[C@@H](CC(C)(C)C)N(Cc1cncc(N(C)C3CCC3)n1)C(=O)c1cccc(c1)S(=O)(=O)N2` [Compound 360], the “HBE2 Activity at 3 μM (%)” value in test [1] is given as “+++ (+++ is >60%)”.

Take `CC(C)=Cc1c(N2C(=O)c3cccc(c3)S(=O)(=O)Nc3nc(c(C)c(-c4c(C)cccc4C)n3)OC[C@H]2CC(C)(C)C)cnn1C` [Compound 361, (11R)-6-(2,6-Dimethylphenyl)-11-(2,2-dimethylpropyl)-7-methyl-12-[1-methyl-5-(2-methylprop-1-enyl)pyrazol-4-yl]-2,2-dioxo-9-oxa-2λ^6-thia-3,5,12,19-tetrazatricyclo[12.3.1.14,8]nonadeca-1(18),4(19),5,7,14,16-hexaen-13-one]: the “HBE2 Activity at 3 μM (%)” value in test [1] is reported as “+++ (+++ is >60%)”.

As to `Cc1cccc(C)c1-c1nc2cc(c1C(F)(F)F)OC[C@@H](CC(C)(C)C)N(Cc1cncc(N(C)C3CCC3)n1)C(=O)c1cccc(c1)S(=O)(=O)N2` [Compound 363, (11R)-12-[[6-[Cyclobutyl(methyl)amino]pyrazin-2-yl]methyl]-6-(2,6-dimethylphenyl)-11-(2,2-dimethylpropyl)-2,2-dioxo-7-(trifluoromethyl)-9-oxa-2λ^6-thia-3,5,12-triazatricyclo[12.3.1.14,8]nonadeca-1(18),4(19),5,7,14,16-hexaen-13-one], the “HBE2 Activity at 3 μM (%)” value in test [1] is “+++ (+++ is >60%)”.
